Measurements: patent US4346089A, “1-Aza-4-oxa-bicyclo [4,4,0]decane derivatives” (Beecham Group Limited, priority 1980, dated 1982)
Read-outs that look alike come from different tables or passages of the source.

Assays:
Assay type in all cases: in vivo
[1] = test system: intragastric pressure; assay: Increase in intragastric pressure in the rat (gastric activity); settings: sc, 40 min, conscious starved rats, subcutaneous, 40 minute period after administration, read-out: minimum dose for activity (increase in intragastric pressure), Dose mg/kg Subcutaneously
Procedure: Increase in intragastric pressure in the rat
Intragastric pressure changes were recorded from previously starved conscious but retrained rats using a saline filled catheter inserted into the lumen of the stomach via a permanent gastric fistula. The catheter was connected to a physiological pressure transducer and pressure changes recorded on a hot wire pen recorder. In each animal pre-dose period of 40 minutes was allowed to obtain a measure of spontaneous activity. An index of activity was obtained by measuring the average height of pressure waves during 10 minute periods. Values for 4 such periods were obtained during assessment of spontaneous activity and for the 40 minute period after the subcutaneous administration of the compounds. Students `t` test was applied to the difference in average values obtained for spontaneous and post-compound activity.

[2] = test system: apomorphine induced climbing; assay: Inhibition of apomorphine induced climbing in the mouse; settings: apomorphine 1 mg/kg s.c.; for ED50: Mus musculus, sc, scored at 10, 20 and 30 minutes, read-out: Dose mg/kg ED50 (dose that inhibits the apomorphine response by 50%)
Procedure: Compounds were also tested for their ability to inhibit apomorphine induced climbing in the mouse. Inactivity in this test may be indicative of a low propensity to produce extra-pyramidal side-effects in man.
The method used for this test is as set out below:
Inhibition of apomorphine induced climbing in the mouse
The test is based on that described by Protais, P., Constantin, J. and Schwartz, J. C. (1976), Psychopharmacology, 50, 1-6.
Apomorphine 1 mg/kg s.c. induces mice to climb the wall of a wire cage (inverted food hopper--11×7.5×18 cm high). Mice acclimatised in their home cages in groups of 5 are placed under the hoppers immediately after the injection of apomorphine 1 mg/kg s.c. At 10, 20 and 30 minutes after injection climbing behaviour is scored. The mice are observed for 30 seconds and scored according to the position in which they spend the majority of time, score 0--four paws on floor of cage; score 1--fore paws only on walls; score 2--all paws on wall of cage.
The scores at all 3 times for each mouse are summed for apomorphine only and for apomorphine plus compound groups of mice.
Total scores are then calculated as the percentage inhibition of climbing as follows: [formula]
From graphical representation of the results ED50 values (the dose that inhibits the apomorphine response by 50%) are then obtained.

[3] = test system: intragastric pressure; assay: Increase in intragastric pressure in the rat (gastric activity); settings: conscious starved rats, oral, read-out: minimum dose for activity (increase in intragastric pressure), Dose mg/kg Orally

`COc1cc(N)c(Cl)cc1C(=O)N[C@H]1CCN2CC[S+]([O-])C[C@H]2C1` (mixture of isomers) [Example 18, (±) 4-Amino-5-chloro-2-methoxy-N-(8β-1-aza-6α-H-4-oxothiabicyclo[4,4,0]decyl)benzamide] gave a minimal effective dose [1] of 1 mg/kg.
For `COc1cc(N)c(Cl)cc1C(=O)NC1CCN2CC[S+]([O-])CC2C1` (racemic) [Example 16, (±) 4-Amino-5-chloro-2-methoxy-N-(8α,β-1-aza-6α-H-4-oxothiabicyclo[4,4,0]decyl)benzamide], the minimal effective dose [1] was 5 mg/kg and the “Dose mg/kg ED50: Ia at stated dose (inhibition of apomorphine induced climbing)” value ([2]; at 10 mg/kg po) was “Ia at 10 po”.
With `COc1cc(N)c(Cl)cc1C(=O)N[C@H]1CCN2CCOC[C@@H]2C1` (relative stereo) [Example 2, (±) 4-Amino-5-chloro-2-methoxy-N-(8α-1-aza-6α-H-4-oxabicyclo [4,4,0]decyl)benzamide] the minimal effective dose [1] was 0.5 mg/kg, the ED50 ([2]; route of compound not given) was 70 mg/kg and the minimal effective dose [3] was 0.5 mg/kg.
With `COc1cc(N)c(Cl)cc1C(=O)N[C@H]1CCN2CCOC[C@H]2C1` (relative stereo) [Example 4, (±) 4-Amino-5-chloro-2-methoxy-N-(8β-1-aza-6α-H-4-oxabicyclo [4,4,0]delcyl)benzamide] the minimal effective dose [1] was 1 mg/kg and the ED50 ([2]; route of compound not given) was 30 mg/kg.
`COc1cc(N)c(Cl)cc1C(=O)N[C@H]1CCN2[C@H](COC[C@H]2C)C1` (relative stereo) [Example 6, (±) 4-Amino-5-chloro-2-methoxy-N-(8α-1-aza-2β-methyl-6α-H-4-oxabicyclo[4,4,0]decyl)benzamide] was tested, and the minimal effective dose [1] was 0.2 mg/kg, the ED50 ([2]; route of compound not given) was 40 mg/kg and the minimal effective dose [3] was 0.5 mg/kg.
In the case of `COc1cc(N)c(Cl)cc1C(=O)N[C@H]1CCN2CCSC[C@@H]2C1` (relative stereo) [Example 8, (±) 4-Amino-5-chloro-2-methoxy-N-(8α-1-aza-6α-H-4-thiabicyclo [4,4 ,0]decyl)benzamide], the minimal effective dose [1] is reported as 5 mg/kg and the “Dose mg/kg ED50: Ia at stated dose (inhibition of apomorphine induced climbing)” value ([2]; at 25 mg/kg, route of compound not given) is reported as “Ia at 25”.
`COc1cc(N)c(Cl)cc1C(=O)N[C@H]1CCN2CCSC[C@H]2C1` (relative stereo) [Example 10, (±) 4-Amino-5-chloro-2-methoxy-N-(8β-aza-6α-H-4-thiabicyclo [4,4,0]decyl)benzamide] was tested, and the minimal effective dose [1] was 1 mg/kg.
`COc1cc(N)c(Cl)cc1C(=O)N[C@H]1CCN2[C@H](COC[C@H]2c2ccccc2)C1` (relative stereo) [Example 12, (±) 4-Amino-5-chloro-2-methoxy-N-(8α-1-aza-2β-phenyl-6α-H-4-oxabicyclo[4,4,0]decyl)benzamide] showed an ED50 ([2]; route of compound not given) of 30 mg/kg.
In the case of `COc1cc(N)c(Cl)cc1C(=O)N[C@@H]1CCN2[C@H](COC[C@H]2c2ccccc2)C1` (relative stereo) [Example 14, (±) 4-Amino-5-chloro-2-methoxy-N-(8β-1-aza-2β-phenyl-6α-H-4-oxabicyclo[4,4,0]decyl)benzamide monohydrate], the minimal effective dose [1] is reported as 1 mg/kg and the “Dose mg/kg ED50: Ia at stated dose (inhibition of apomorphine induced climbing)” value ([2]; at 10 mg/kg po) is reported as “Ia at 10 po”.
